According to US20230085307A1, “PYRIDAZINONE COMPOUND AND HERBICIDE” (NISSAN CHEMICAL CORPORATION, priority 2019, published 2023):

Assays:
late watergrass = test: Test Example 2: herbicidal activity, application during weed generation under submerged conditions (Table 17, symbol A); assay type: in vivo, late watergrass (Echinochloa oryzicola); conditions: AAH 320 g/ha; application during weed generation, submerged conditions
Procedure, shortened: (§1)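 Wagner pot, alluvial soil, 4 cm flood; mixed sowing of all species; greenhouse 25° C.–30° C. Emulsifiable formulation, water-diluted to predetermined dose, applied to paddy water at 1–2 leaf stage. Effect rated at 3 wk using the earlier test's scoring criteria.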

Japanese bulrush = test: Test Example 2: herbicidal activity, application during weed generation under submerged conditions (Table 17, symbol B); assay type: in vivo, Japanese bulrush (Schoenoplectus juncoides); conditions: AAH 320 g/ha; application during weed generation, submerged conditions
Procedure, shortened: as §1

oval-leafed pondweed = test: Test Example 2: herbicidal activity, application during weed generation under submerged conditions (Table 17, symbol C); assay type: in vivo, oval-leafed pondweed (Monochoria vaginalis); conditions: AAH 320 g/ha; application during weed generation, submerged conditions
Procedure, shortened: as §1

barnyard grass [1] = test: Test Example 3: herbicidal effect by foliage application, Wagner pot (Table 18, symbol H); assay type: in vivo, barnyard grass (Echinochloa crus-galli); conditions: 320 g/ha
Procedure, shortened: (§2)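 Plants were sown in alluvial soil held under 0.1–0.5 cm standing water and grown 14 days in a greenhouse at 25–30 °C. An emulsifiable formulation, water-diluted to the set dose, was then sprayed onto the foliage, and effects were scored three weeks later using previously defined criteria.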

Chinese sprangletop = test: Test Example 3: herbicidal effect by foliage application, Wagner pot (Table 18, symbol D); assay type: in vivo, chinese sprangletop (Leptochloa chinensis); conditions: 320 g/ha
Procedure, shortened: as §2

rice flat sedge = test: Test Example 3: herbicidal effect by foliage application, Wagner pot (Table 18, symbol E); assay type: in vivo, rice flat sedge (Cyperus iria); conditions: 320 g/ha
Procedure, shortened: as §2

southern crabgrass [2] = test: Test Example 4: herbicidal effect by soil treatment (Table 19, symbol F); assay type: in vivo, southern crabgrass (Digitaria ciliaris); conditions: amount of applied herbicide 320 g/ha
Procedure, shortened: (§3)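 Three weeks of greenhouse growth at 25° C. to 30° C. followed a uniform surface spray of water-diluted emulsion at a predetermined herbicide amount. Seeds had been sown beforehand under about 1.5 cm of sterilized diluvial soil. Grading followed criteria set out in an earlier test.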

green foxtail [3] = test: Test Example 4: herbicidal effect by soil treatment (Table 19, symbol G); assay type: in vivo, green foxtail (Setaria viridis); conditions: amount of applied herbicide 320 g/ha
Procedure, shortened: as §3

barnyard grass [4] = test: Test Example 4: herbicidal effect by soil treatment (Table 19, symbol H); assay type: in vivo, barnyard grass (Echinochloa crus-galli); conditions: amount of applied herbicide 320 g/ha
Procedure, shortened: as §3

wild oat [5] = test: Test Example 4: herbicidal effect by soil treatment (Table 19, symbol I); assay type: in vivo, wild oat (Avena fatua); conditions: amount of applied herbicide 320 g/ha
Procedure, shortened: as §3

blackgrass [6] = test: Test Example 4: herbicidal effect by soil treatment (Table 19, symbol J); assay type: in vivo, blackgrass (Alopecurus myosuroides); conditions: amount of applied herbicide 320 g/ha
Procedure, shortened: as §3

Italian ryegrass [7] = test: Test Example 4: herbicidal effect by soil treatment (Table 19, symbol K); assay type: in vivo, Italian ryegrass (Lolium multiflorum); conditions: amount of applied herbicide 320 g/ha
Procedure, shortened: as §3

velvetleaf [8] = test: Test Example 4: herbicidal effect by soil treatment (Table 19, symbol M); assay type: in vivo, velvetleaf (Abutilon theophrasti); conditions: amount of applied herbicide 320 g/ha
Procedure, shortened: as §3

redroot pigweed [9] = test: Test Example 4: herbicidal effect by soil treatment (Table 19, symbol N); assay type: in vivo, redroot pigweed (Amaranthus retroflexus); conditions: amount of applied herbicide 320 g/ha
Procedure, shortened: as §3

chickweed [10] = test: Test Example 4: herbicidal effect by soil treatment (Table 19, symbol P); assay type: in vivo, common chickweed (Stellaria media); conditions: amount of applied herbicide 320 g/ha
Procedure, shortened: as §3

false cleavers [11] = test: Test Example 4: herbicidal effect by soil treatment (Table 19, symbol Q); assay type: in vivo, false cleavers (Galium spurium); conditions: amount of applied herbicide 320 g/ha
Procedure, shortened: as §3

persian speedwell [12] = test: Test Example 4: herbicidal effect by soil treatment (Table 19, symbol R); assay type: in vivo, Persian speedwell (Veronica persica); conditions: amount of applied herbicide 320 g/ha
Procedure, shortened: as §3

southern crabgrass [13] = test: Test Example 5: herbicidal effect by foliage application, plastic box (Table 20, symbol F); assay type: in vivo, southern crabgrass (Digitaria ciliaris); conditions: foliage application, 320 g/ha, three weeks after application
Procedure, shortened: (§4)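 Plants sown in sterilized diluvial soil and grown 14 days in a greenhouse at 25° C to 30° C, then sprayed on the foliage with the compound's emulsion diluted in water to a predetermined herbicide amount. Injury to weeds and crops scored three weeks after application on a visual rating scale.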

green foxtail [14] = test: Test Example 5: herbicidal effect by foliage application, plastic box (Table 20, symbol G); assay type: in vivo, green foxtail (Setaria viridis); conditions: foliage application, 320 g/ha, three weeks after application
Procedure, shortened: as §4

barnyard grass [15] = test: Test Example 5: herbicidal effect by foliage application, plastic box (Table 20, symbol H); assay type: in vivo, barnyard grass (Echinochloa crus-galli); conditions: foliage application, 320 g/ha, three weeks after application
Procedure, shortened: as §4

wild oat [16] = test: Test Example 5: herbicidal effect by foliage application, plastic box (Table 20, symbol I); assay type: in vivo, wild oat (Avena fatua); conditions: foliage application, 320 g/ha, three weeks after application
Procedure, shortened: as §4

blackgrass [17] = test: Test Example 5: herbicidal effect by foliage application, plastic box (Table 20, symbol J); assay type: in vivo, blackgrass (Alopecurus myosuroides); conditions: foliage application, 320 g/ha, three weeks after application
Procedure, shortened: as §4

Italian ryegrass [18] = test: Test Example 5: herbicidal effect by foliage application, plastic box (Table 20, symbol K); assay type: in vivo, Italian ryegrass (Lolium multiflorum); conditions: foliage application, 320 g/ha, three weeks after application
Procedure, shortened: as §4

windgrass = test: Test Example 5: herbicidal effect by foliage application, plastic box (Table 20, symbol L); assay type: in vivo, windgrass (Apera spica-venti); conditions: foliage application, 320 g/ha, three weeks after application
Procedure, shortened: as §4

velvetleaf [19] = test: Test Example 5: herbicidal effect by foliage application, plastic box (Table 20, symbol M); assay type: in vivo, velvetleaf (Abutilon theophrasti); conditions: foliage application, 320 g/ha, three weeks after application
Procedure, shortened: as §4

redroot pigweed [20] = test: Test Example 5: herbicidal effect by foliage application, plastic box (Table 20, symbol N); assay type: in vivo, redroot pigweed (Amaranthus retroflexus); conditions: foliage application, 320 g/ha, three weeks after application
Procedure, shortened: as §4

lambsquarters = test: Test Example 5: herbicidal effect by foliage application, plastic box (Table 20, symbol O); assay type: in vivo, lambsquarters (Chenopodium album); conditions: foliage application, 320 g/ha, three weeks after application
Procedure, shortened: as §4

chickweed [21] = test: Test Example 5: herbicidal effect by foliage application, plastic box (Table 20, symbol P); assay type: in vivo, common chickweed (Stellaria media); conditions: foliage application, 320 g/ha, three weeks after application
Procedure, shortened: as §4

false cleavers [22] = test: Test Example 5: herbicidal effect by foliage application, plastic box (Table 20, symbol Q); assay type: in vivo, false cleavers (Galium spurium); conditions: foliage application, 320 g/ha, three weeks after application
Procedure, shortened: as §4

persian speedwell [23] = test: Test Example 5: herbicidal effect by foliage application, plastic box (Table 20, symbol R); assay type: in vivo, Persian speedwell (Veronica persica); conditions: foliage application, 320 g/ha, three weeks after application
Procedure, shortened: as §4

## COc1ccc(-c2sc3ccccc3c2-c2c(O)c(C)nn(C)c2=O)cc1C [1-068]
Late watergrass
  herbicidal effect rating, A: late watergrass: 0 (Herbicidal rate of 5% or less (almost no effect))
Japanese bulrush
  herbicidal effect rating, B: Japanese bulrush: 1 (Herbicidal rate of 5% or more and less than 20%)
oval-leafed pondweed
  herbicidal effect rating, C: oval-leafed pondweed: 3 (Herbicidal rate of 40% or more and less than 70%)
Barnyard grass [1]
  herbicidal effect on H (barnyard grass), rating 0-5: 3 (Herbicidal rate of 40% or more and less than 70%)
Chinese sprangletop
  herbicidal effect on D (Chinese sprangletop), rating 0-5: 1 (Herbicidal rate of 5% or more and less than 20%)
Rice flat sedge
  herbicidal effect on E (rice flat sedge), rating 0-5: 5 (Herbicidal rate of 90% or more (almost completely withered))
Southern crabgrass [2]
  herbicidal effect rating, F: southern crabgrass: 0 (Herbicidal rate of 5% or less (almost no effect))
Green foxtail [3]
  herbicidal effect rating, G: green foxtail: 4 (Herbicidal rate of 70% or more and less than 90%)
Barnyard grass [4]
  herbicidal effect rating, H: barnyard grass: 4 (Herbicidal rate of 70% or more and less than 90%)
Wild oat [5]
  herbicidal effect rating, I: wild oat: 0 (Herbicidal rate of 5% or less (almost no effect))
Blackgrass [6]
  herbicidal effect rating, J: blackgrass: 0 (Herbicidal rate of 5% or less (almost no effect))
Italian ryegrass [7]
  herbicidal effect rating, K: Italian ryegrass: 2 (Herbicidal rate of 20% or more and less than 40%)
Velvetleaf [8]
  herbicidal effect rating, M: velvetleaf: 0 (Herbicidal rate of 5% or less (almost no effect))
Redroot pigweed [9]
  herbicidal effect rating, N: redroot pigweed: 0 (Herbicidal rate of 5% or less (almost no effect))
Chickweed [10]
  herbicidal effect rating, P: chickweed: 2 (Herbicidal rate of 20% or more and less than 40%)
False cleavers [11]
  herbicidal effect rating, Q: false cleavers: 0 (Herbicidal rate of 5% or less (almost no effect))
Persian speedwell [12]
  herbicidal effect rating, R: persian speedwell: 4 (Herbicidal rate of 70% or more and less than 90%)
Southern crabgrass [13]
  herbicidal effect grade, F: southern crabgrass: 3 (Herbicidal rate of 40% or more and less than 70%)
Green foxtail [14]
  herbicidal effect grade, G: green foxtail: 3 (Herbicidal rate of 40% or more and less than 70%)
Barnyard grass [15]
  herbicidal effect grade, H: barnyard grass: 3 (Herbicidal rate of 40% or more and less than 70%)
Wild oat [16]
  herbicidal effect grade, I: wild oat: 1 (Herbicidal rate of 5% or more and less than 20%)
Blackgrass [17]
  herbicidal effect grade, J: blackgrass: 0 (Herbicidal rate of 5% or less (almost no effect))
Italian ryegrass [18]
  herbicidal effect grade, K: Italian ryegrass: 3 (Herbicidal rate of 40% or more and less than 70%)
windgrass
  herbicidal effect grade, L: windgrass: 0 (Herbicidal rate of 5% or less (almost no effect))
Velvetleaf [19]
  herbicidal effect grade, M: velvetleaf: 3 (Herbicidal rate of 40% or more and less than 70%)
Redroot pigweed [20]
  herbicidal effect grade, N: redroot pigweed: 0 (Herbicidal rate of 5% or less (almost no effect))
lambsquarters
  herbicidal effect grade, O: lambsquarters: 3 (Herbicidal rate of 40% or more and less than 70%)
Chickweed [21]
  herbicidal effect grade, P: chickweed: 5 (Herbicidal rate of 90% or more (almost completely withered))
False cleavers [22]
  herbicidal effect grade, Q: false cleavers: 0 (Herbicidal rate of 5% or less (almost no effect))
Persian speedwell [23]
  herbicidal effect grade, R: persian speedwell: 5 (Herbicidal rate of 90% or more (almost completely withered))
